The target of one data set is HSA (Homo sapiens, UniProt P02768). Description: Spectrofluorimetric titration (fluorescence quenching) of HSA with the complexes. It counts as binding. Conditions: for ΔHb / ΔSb: van't Hoff plot, 300-310 K. Here is the method: The excitation wavelength was set to 285 nm, while the emission spectrum was recorded in the interval from 315 nm to 600 nm. […] solution (phosphate buffer pH = 7.6) with a concentration of 5 × 10^−6 M was titrated (5–10 times) with a complex solutions (5 × 10^−4 M). Before each addition of complexes 1 and 2 to the HSA solutions, the cuvette was thermostated for 2 min for each tested temperature, and then the fluorescence quenching spectra of proteins were recorded. Recordings started 2 min after adding complex 1/complex 2 solutions to reach the desired temperature. The data were analyzed according to the double-log Stern-Volmer (SV) equation: (1) log(I0−IQ/IQ)=logKb+nlog[Q] where Kb and n are the binding constants and the number of binding sites per HSA molecule. The binding constants were determined from the intercept values on the SV diagrams and the double log SV equation (Table 1). These values are further used for van’t Hoff plots, lnKb = f(T^−1), from which the Gibbs free energy, enthalpy, and entropy changes were determined.

The test system of data set [1] is MDA-MB-231 cells. Nature of the data set: MTT test. Conditions: MDA-MB-231, 24 h treatment. It counts as cell-based, human. Here is the method: (§1) The human breast cancer cell line (MDA-MB-231) and human pancreatic cancer cell line (MIA PaCa-2) were obtained from the American Type Culture Collection (ATCC). The cells were cultured in 25 cm^2 flasks with DMEM supplemented with 100 U/mL penicillin-streptomycin, 10% FBS, at 37 °C with 5% CO2 in a humidified incubator.
(§2) Cells were harvested when they reached 85–90% confluent. 100 µL of cell suspension (15.000 cells per well) was poured into the wells of the 96-well plate and incubated overnight to allow the cells to attach to the well. The cells were treated with 1 or 2 in concentrations ranging from 0.19 to 200 µM. Untreated cells were used as control. After 24 h, 10 µL MTT (5 mg/mL) was added to each well. Cultures were incubated for […] at 37 °C. The reduction process was stopped by adding 100 µL/well of 10% SDS acidified with 1N HCl. Dissolution of the resulting blue color was continued overnight in the incubator at 37 °C. All treatments were done in replicates of three. The absorbance was read at 540 nm on an ELISA reader (RT-6100, Rayto, Shenzhen, China). The ratio of absorbances of treated to untreated living cells was used to measure viability. Cytotoxic activity was recorded as IC50, which is the concentration necessary to reduce the absorbance of treated cells by 50% compared to the control.

The subject of data set [2] is MIA PaCa-2 cells. Description: MTT test. It counts as cell-based, human. Conditions: MIA PaCa-2, 24 h treatment. Here is the method: as §1, §2
The test system of another data set is HS-5 cells. Nature of the data set: MTT test on healthy cells. It counts as cell-based. Conditions: same concentrations as for cancer cells, 24 h. As to the method: as §2
In data set [3] the test system is MDA-MB-231 cells. Description: Malondialdehyde and protein carbonyl concentrations in the medium. Conditions: MDA-MB-231, 24 h, 75 µM complex 1 or 50 µM complex 2, vs untreated cells. It counts as cell-based, human. Here is the method:
(§3) MDA-MB-231 and MIA PaCa-2 cells were treated with 50 µM of complex 2 or 75 µM and 100 µM of complex 1, respectively, for 24 h. Untreated cells were used as control. The supernatants were collected and used for further analyses. Lipid peroxidation was estimated by a spectrophotometric assay based on the absorption maximum of the malondialdehyde (MDA) complex with thiobarbituric acid in an acidic environment and high temperature. 1,1,3,3-Tetramethoxypropane was used as standard. Absorbance was read on the ELISA reader using a 540 nm filter. The concentration was determined using a standard curve. The determination of protein carbonyl (PC) concentration was based on the method of Levin and associates. Absorbance was read on the ELISA reader using a 375 nm filter.

The test system of data set [4] is MIA PaCa-2 cells. The data set is described as above. It counts as cell-based, human. Conditions: MIA PaCa-2, 24 h, 100 µM complex 1 or 50 µM complex 2, vs control. As to the method:
as §3

For a further data set, the system named is MMP9. Description: Gelatin gel electrophoresis of supernatants, MMP9 activity, MIA PaCa-2. It counts as cell-based, human. As to the method: (§4) MDA-MB-231 and MIA PaCa-2 cells were treated with 50 µM of complex 2 or 75 µM and 100 µM of complex 1, respectively. The treatments lasted 24 and 48 h. Untreated cells were used as control. The supernatants were collected for further analysis. Electrophoresis in a polyacrylamide gel with an add-on of 0.1% SDS and 0.2% gelatin was used to measure metalloproteinase 2 and 9 activity (MMP2 and MMP9).
(§5) The gels were imaged with a ChemiDoc Imaging System (Bio-Rad Laboratories, Hercules, CA, USA) and estimated by densitometric scanning using the Image Lab (Bio-Rad Laboratories, Inc. Version 6.0.0.25) software tool.

A further data set deals with MMP2. Nature of the data set: Gelatin gel electrophoresis of supernatants, MMP2 activity, MDA-MB-231. It counts as cell-based, human. Conditions: MDA-MB-231, 75 µM complex 1 or 50 µM complex 2, 24 and 48 h treatments. As to the method: as §4, §5
Data set [5] deals with MDA-MB-231 cells. Description: Examination of the cell cycle. It counts as cell-based, human. Conditions: MDA-MB-231, 24 h, p < 0.01.
For data set [6], the system named is MIA PaCa-2 cells. Description: Examination of the cell cycle. It counts as cell-based, human. Conditions: MIA PaCa-2, 24 h.
Data set [7] in a line: Stability in PBS followed by UV-VIS spectroscopy. It counts as physicochemical. Conditions: 1 × 10^−4 M in PBS, 0-24 h. An excerpt:
Ligand precursor 3,4-dimethylphenylhydrazine hydrochloride (BLDPharm), [{RuCl2(η^6-p-cymene)}2] (Carbolutions), LiOH × H2O (Sigma Aldrich, Darmstadt, Germany), methanol (Carl Roth), diethyl ether (Carl Roth) and 2-propanol (Carl Roth) were obtained commercially and used without further purification. Deuterated solvents, CDCl3 and MeOD, were procured from Deuterosolvents GmbH and used for NMR spectroscopy. NMR spectra of the synthesized complexes, including ^1H (400.23 MHz) and ^13C NMR (100.1 MHz), were recorded using a Bruker Avance™ 400 MHz Spectrometer. Elemental analysis was performed and the Institute of Chemistry, Chemnitz University of Technology (Heraeus VARIO EL oven). The stability of compounds was examined by UV-VIS spectroscopy on a Thermo Scientific UV-VIS Spectrometer (Thermo Fisher Scientific, Waltham, MA, USA) between 800 and 200 nm. For this experiment, 1 × 10^−2 M solutions of complexes in DMSO were prepared and further diluted to 1 × 10^−4 M solutions in PBS. The measurements were repeated for 24 h.

HSA, sequence (P02768 25-609): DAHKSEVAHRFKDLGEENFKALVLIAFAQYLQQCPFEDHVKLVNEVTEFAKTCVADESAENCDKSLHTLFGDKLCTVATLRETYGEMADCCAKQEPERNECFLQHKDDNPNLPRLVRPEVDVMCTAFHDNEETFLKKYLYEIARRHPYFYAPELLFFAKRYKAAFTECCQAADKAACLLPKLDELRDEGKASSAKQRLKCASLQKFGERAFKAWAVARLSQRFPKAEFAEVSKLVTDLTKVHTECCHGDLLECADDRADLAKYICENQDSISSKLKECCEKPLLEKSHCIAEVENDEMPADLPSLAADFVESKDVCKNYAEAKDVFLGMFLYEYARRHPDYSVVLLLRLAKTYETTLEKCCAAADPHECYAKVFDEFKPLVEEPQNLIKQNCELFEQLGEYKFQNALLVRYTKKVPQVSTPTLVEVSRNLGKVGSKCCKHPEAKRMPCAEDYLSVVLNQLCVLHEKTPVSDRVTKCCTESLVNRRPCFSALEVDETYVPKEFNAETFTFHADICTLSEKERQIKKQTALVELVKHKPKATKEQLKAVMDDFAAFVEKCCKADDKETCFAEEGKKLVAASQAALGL

`Cc1ccc(C(C)C)cc1.Cc1ccc(C(C)C)cc1.Cc1ccc(NN)cc1C.[Cl-].[Cl][Ru].[Cl][Ru][Cl]` [complex 2, Chlorido(μ-chlorido)(η^6-p-cymene)(μ-3,4-dimethylphenylhydrazine-κ^2N,N′)ruthenium(II)-dimer chloride]: the “n (number of binding sites)” value came to 1.00 on HSA (300 K), 1.03 on HSA (305 K) and 1.09 at HSA (310 K). Further, the ΔGb at HSA (300 K) is -6.12 kcal/mol; at HSA (305 K), -6.55 kcal/mol; at HSA (310 K), -6.96 kcal/mol. Also, the ΔHb on HSA was determined as 18.9 kcal/mol. This compound registered a ΔSb on HSA of 348 J mol^−1 K^−1. Further, the concentration for half-maximal inhibition (IC50) in the data set with MDA-MB-231 cells [1] and in the data set on MIA PaCa-2 cells [2] was 50 µM throughout. For the same compound, the “viability of HS-5 cells” value with HS-5 cells is “did not affect the viability”. The “MDA concentration in the medium” value in the data set on MDA-MB-231 cells [3] was “increased”; in the data set with MIA PaCa-2 cells [4], “significantly reduced”. The “PC concentration in the medium” value in the data set on MDA-MB-231 cells [3] and in the data set on MIA PaCa-2 cells [4] was “decreased” in each case. For the same compound, the MMP9 activity entry with MMP9 (MIA PaCa-2, 50 µM complex 2, 24 and 48 h treatments) is “did not affect”. Besides, the MMP2 activity result in the data set with MMP2 is given as “No changes”. The “number of cells in the G0/G1 phase” value in the data set on MDA-MB-231 cells [5] is listed as “significantly decreased”. The “number of cells in the S phase” value with MDA-MB-231 cells [5] was “increased”. Also, the “effect on the cell cycle” value in the data set with MIA PaCa-2 cells [6] was “did not affect”. The “time-dependent UV-VIS spectra (stability)” value in data set [7] is listed as “gradual increase in absorbance”.
Turning to “Dichlorido(η^6-p-cymene)(3,4-dimethylphenylhydrazine-κN)ruthenium(II) [complex 1]”, the “change in Gibbs binding energy, range over the examined temperatures” value on HSA (27-37 °C) is −28.3 to −34.2 kJ mol^−1. In addition, the figures for the “n (number of binding sites)” value on HSA (300 K), at HSA (305 K) and at HSA (310 K) were 1.05, 1.10 and 1.21, respectively. Besides, the ΔGb was -6.76 kcal/mol on HSA (300 K), -7.46 kcal/mol on HSA (305 K) and -8.17 kcal/mol on HSA (310 K). This compound also showed a ΔHb at HSA of 35.8 kcal/mol. The compound also yielded a ΔSb on HSA of 590 J mol^−1 K^−1. Further, the IC50 with MDA-MB-231 cells [1] stood at 75 µM; in the data set on MIA PaCa-2 cells [2] it was 100 µM. In addition, the “viability of HS-5 cells” value with HS-5 cells is recorded as “did not affect the viability”. Besides, the figures for the “MDA concentration in the medium” value in the data set with MDA-MB-231 cells [3] and in the data set with MIA PaCa-2 cells [4] were “reduces” and “significantly reduced”, respectively. The figures for the “PC concentration in the medium” value in the data set on MDA-MB-231 cells [3] and in the data set on MIA PaCa-2 cells [4] were “reduces MDA concentration but not PC” and “increased”, respectively. Further, in the data set on MMP9 (MIA PaCa-2, 100 µM complex 1, after 48 h, compared to control and 24 h treatment (p < 0.05)), the MMP9 activity result is “significantly lower”. Moreover, in the data set with MMP2, the MMP2 activity result is listed as “No changes”. In addition, the “number of cells in the G0/G1 phase” value with MDA-MB-231 cells [5] was “significantly decreased”. The “number of cells in the S phase” value in the data set on MDA-MB-231 cells [5] was “increased”. The “effect on the cell cycle” value in the data set with MIA PaCa-2 cells [6] is “did not affect”. In data set [7], the “time-dependent UV-VIS spectra (stability)” value is “monoexponential decrease in absorbance due to the hydrolysis”.

The values are drawn from article PMC11940238, “Ru(II) Complexes with 3,4-Dimethylphenylhydrazine: Exploring In Vitro Anticancer Activity and Protein Affinities” (Biomolecules, 2025).
